Where two headings read alike, the source gives them in different places.

The test system of this assay is recombinant NL4-3 virus (Renilla luciferase in nef, Gag P373S; NLRluc) in MT-2 cells. The assay can be described thus: whole plant or invertebrate. Format: cell-based, HIV. To be noted: Renilla, NL43, luciferase activity in cells infected for 4-5 days with NLRluc recombinants, serial dilutions of inhibitor, read-out: EC50. In short, it runs like this: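 First, reporter virus was generated in 293T cells and titered on MT-2 cells. Next, MT-2 cells were infected in the presence of serial compound dilutions for 4-5 days. Finally, cells were lysed and luciferase activity was measured to quantify inhibition.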

Consider `C=C(C)[C@@H]1CC[C@]2(NC(=O)OCCCCN3CCS(=O)(=O)CC3)CC[C@]3(C)[C@H](CC[C@@H]4[C@@]5(C)CC=C(c6ccc(C(=O)O)cc6)C(C)(C)[C@@H]5CC[C@]43C)[C@@H]12` [Example 72, benzoic acid, 4-[(1R,3aS,5aR,5bR,7aR,11aS,11bR,13aR,13bR)-3a-[[[4-(1,1-dioxido-4-thiomorpholinyl)butoxy]carbonyl]amino]-2,3,3a,4,5,5a,5b,6,7,7a,8,11,11a,11b,12,13,13a,13b-octadecahydro-5a,5b,8,8,11a-pentamethyl-1-(1-methylethenyl)-1H-cyclopenta[a]chrysen-9-yl]], for which the EC50 (as a rule, the concentration that produces a half-maximal response) (class symbols (key in Table 1)) is less than 100 nM.

As to `C=C(C)[C@@H]1CC[C@]2(NCCCN3CCS(=O)(=O)CC3)CC[C@]3(C)[C@H](CC[C@@H]4[C@@]5(C)CC=C(c6ccc(C(=O)O)cc6)C(C)(C)[C@@H]5CC[C@]43C)[C@@H]12` [Example 144, 4-[(1R,3aS,5aR,5bR,7aR,11aS,11bR,13aR,13bR)-3a-[[3-(1,1-dioxido-4-thiomorpholinyl)propyl]amino]-2,3,3a,4,5,5a,5b,6,7,7a,8,11,11a,11b,12,13,13a,13b-octadecahydro-5a,5b,8,8,11a-pentamethyl-1-(1-methylethenyl)-1H-cyclopenta[a]chrysen-9-yl]-benzoic acid], the EC50 (class symbols (key in Table 1)) was less than 100 nM.

On to `C=C(C)[C@@H]1CC[C@]2(NC(=O)N(CCN3CCOCC3)CC(=O)O)CC[C@]3(C)[C@H](CC[C@@H]4[C@@]5(C)CC=C(c6ccc(C(=O)O)cc6)C(C)(C)[C@@H]5CC[C@]43C)[C@@H]12` [Example 53, 4-((1R,3aS,5aR,5bR,7aR,11aS,11bR,13aR,13bR)-3a-(3-(carboxymethyl)-3-(2-morpholinoethyl)ureido)-5a,5b,8,8,11a-pentamethyl-1-(prop-1-en-2-yl)-2,3,3a,4,5,5a,5b,6,7,7a,8,11,11a,11b,12,13,13a,13b-octadecahydro-1H-cyclopenta[a]chrysen-9-yl)benzoic acid], for which the EC50 (class symbols (key in Table 1)) was less than 100 nM.

Consider `C=C(C)[C@@H]1CC[C@]2(NCC3CCCN(C(=O)OC(C)(C)C)C3)CC[C@]3(C)[C@H](CC[C@@H]4[C@@]5(C)CC=C(c6ccc(C(=O)O)cc6)C(C)(C)[C@@H]5CC[C@]43C)[C@@H]12` (stereo partly drawn) [Example 174, 4-((1R,3aS,5aR,5bR,7aR,11aS,11bR,13aR,13bR)-3a-((1-(tert-butoxycarbonyl)piperidin-3-yl)methylamino)-5a,5b,8,8,11a-pentamethyl-1-(prop-1-en-2-yl)-2,3,3a,4,5,5a,5b,6,7,7a,8,11,11a,11b,12,13,13a,13b-octadecahydro-1H-cyclopenta[a]chrysen-9-yl)benzoic acid], for which the EC50 (numeric values) was 300 nM.

For `C=C(C)[C@@H]1CC[C@]2(NC(=O)CN[C@H](CO)c3ccccc3)CC[C@]3(C)[C@H](CC[C@@H]4[C@@]5(C)CC=C(c6ccc(C(=O)O)cc6)C(C)(C)[C@@H]5CC[C@]43C)[C@@H]12` [Example 108, 4-((1R,3aS,5aR,5bR,7aR,11aS,11bR,13aR,13bR)-3a-(2-((S)-2-hydroxy-1-phenylethylamino)acetamido)-5a,5b,8,8,11a-pentamethyl-1-(prop-1-en-2-yl)-2,3,3a,4,5,5a,5b,6,7,7a,8,11,11a,11b,12,13,13a,13b-octadecahydro-1H-cyclopenta[a]chrysen-9-yl)benzoic acid], the EC50 (class symbols (key in Table 1)) is less than 100 nM.

For `C=C(C)[C@@H]1CC[C@]2(NC(=O)N(CCOC)CCN3CCS(=O)(=O)CC3)CC[C@]3(C)[C@H](CC[C@@H]4[C@@]5(C)CC=C(c6ccc(C(=O)O)cc6)C(C)(C)[C@@H]5CC[C@]43C)[C@@H]12` [Example 67, 4-((1R,3aS,5aR,5bR,7aR,11aS,11bR,13aR,13bR)-3a-(((2-(1,1-dioxido-4-thiomorpholinyl)ethyl)(2-methoxyethyl)carbamoyl)amino)-1-isopropenyl-5a,5b,8,8,11a-pentamethyl-2,3,3a,4,5,5a,5b,6,7,7a,8,11,11a,11b,12,13,13a,13b-octadecahydro-1H-cyclopenta[a]chrysen-9-yl)benzoic acid], the EC50 (class symbols (key in Table 1)) was less than 100 nM.

Consider `C=C(C)[C@@H]1CC[C@]2(NCCN3CCN(C(=O)CC(C)C)CC3)CC[C@]3(C)[C@H](CC[C@@H]4[C@@]5(C)CC=C(c6ccc(C(=O)O)cc6)C(C)(C)[C@@H]5CC[C@]43C)[C@@H]12` [Example B59, 4-((1R,3aS,5aR,5bR,7aR,11aS,11bR,13aR,13bR)-5a,5b,8,8,11a-pentamethyl-3a-((2-(4-(3-methylbutanoyl)piperazin-1-yl)ethyl)amino)-1-(prop-1-en-2-yl)-2,3,3a,4,5,5a,5b,6,7,7a,8,11,11a,11b,12,13,13a,13b-octadecahydro-1H-cyclopenta[a]chrysen-9-yl)benzoic acid], for which the EC50 (class symbols (key in Table 1)) is less than 100 nM.

Consider `C=C(C)[C@@H]1CC[C@]2(NC(=O)NC3(C(=O)O)CC3)CC[C@]3(C)[C@H](CC[C@@H]4[C@@]5(C)CC=C(c6ccc(C(=O)O)cc6)C(C)(C)[C@@H]5CC[C@]43C)[C@@H]12` [Example 4, 4-((1R,3aS,5aR,5bR,7aR,11aS,11bR,13aR,13bR)-3a-(3-(1-carboxycyclopropyl)ureido)-5a,5b,8,8,11a-pentamethyl-1-(prop-1-en-2-yl)-2,3,3a,4,5,5a,5b,6,7,7a,8,11,11a,11b,12,13,13a,13b-octadecahydro-1H-cyclopenta[a]chrysen-9-yl)benzoic acid], for which the EC50 (class symbols (key in Table 1)) was more than 100 nM.

Regarding `C=C(C)[C@@H]1CC[C@]2(NCC(=O)NC)CC[C@]3(C)[C@H](CC[C@@H]4[C@@]5(C)CC=C(c6ccc(C(=O)O)cc6)C(C)(C)[C@@H]5CC[C@]43C)[C@@H]12` [Example 148, 4-((1R,3aS,5aR,5bR,7aR,11aS,11bR,13aR,13bR)-5a,5b,8,8,11a-pentamethyl-3a-(2-(methylamino)-2-oxoethylamino)-1-(prop-1-en-2-yl)-2,3,3a,4,5,5a,5b,6,7,7a,8,11,11a,11b,12,13,13a,13b-octadecahydro-1H-cyclopenta[a]chrysen-9-yl)benzoic acid], the EC50 (class symbols (key in Table 1)) is less than 100 nM.

As to `C=C(C)[C@@H]1CC[C@]2(NCCN3CCN(S(=O)(=O)c4ccc5c(c4)OCCO5)CC3)CC[C@]3(C)[C@H](CC[C@@H]4[C@@]5(C)CC=C(c6ccc(C(=O)O)cc6)C(C)(C)[C@@H]5CC[C@]43C)[C@@H]12` [Example B52, 4-((1R,3aS,5aR,5bR,7aR,11aS,11bR,13aR,13bR)-3a-((2-(4-((2,3-dihydrobenzo[b][1,4]dioxin-6-yl)sulfonyl)piperazin-1-yl)ethyl)amino)-5a,5b,8,8,11a-pentamethyl-1-(prop-1-en-2-yl)-2,3,3a,4,5,5a,5b,6,7,7a,8,11,11a,11b,12,13,13a,13b-octadecahydro-1H-cyclopenta[a]chrysen-9-yl)benzoic acid], the EC50 (class symbols (key in Table 1)) was less than 100 nM.

For `C=C(C)[C@@H]1CC[C@]2(NCCN3CCCC3=O)CC[C@]3(C)[C@H](CC[C@@H]4[C@@]5(C)CC=C(c6ccc(C(=O)O)cc6)C(C)(C)[C@@H]5CC[C@]43C)[C@@H]12` [Example 146, 4-((1R,3aS,5aR,5bR,7aR,11aS,11bR,13aR,13bR)-5a,5b,8,8,11a-pentamethyl-3a-(2-(2-oxopyrrolidin-1-yl)ethylamino)-1-(prop-1-en-2-yl)-2,3,3a,4,5,5a,5b,6,7,7a,8,11,11a,11b,12,13,13a,13b-octadecahydro-1H-cyclopenta[a]chrysen-9-yl)benzoic acid], for the setting “class symbols (key in Table 1)”, the EC50 is less than 100 nM.

As for `C=C(C)[C@@H]1CC[C@]2(NCCN3CCN(S(=O)(=O)c4cccc(OC)c4)CC3)CC[C@]3(C)[C@H](CC[C@@H]4[C@@]5(C)CC=C(c6ccc(C(=O)O)cc6)C(C)(C)[C@@H]5CC[C@]43C)[C@@H]12` [Example B45, 4-((1R,3aS,5aR,5bR,7aR,11aS,11bR,13aR,13bR)-3a-((2-(4-((3-methoxyphenyl)sulfonyl)piperazin-1-yl)ethyl)amino)-5a,5b,8,8,11a-pentamethyl-1-(prop-1-en-2-yl)-2,3,3a,4,5,5a,5b,6,7,7a,8,11,11a,11b,12,13,13a,13b-octadecahydro-1H-cyclopenta[a]chrysen-9-yl)benzoic acid], where the note is “numeric values”, the EC50 amounted to 4 nM.

Consider `C=C(C)[C@@H]1CC[C@]2(NC(=O)C(C(C)C)N3CCS(=O)(=O)CC3)CC[C@]3(C)[C@H](CC[C@@H]4[C@@]5(C)CC=C(c6ccc(C(=O)O)cc6)C(C)(C)[C@@H]5CC[C@]43C)[C@@H]12` (single isomer, unassigned) [Example 110], for which the EC50 (class symbols (key in Table 1)) is less than 100 nM.

`C=C(C)[C@@H]1CC[C@]2(NCCN3CCN(S(=O)(=O)c4ccc(Cl)cc4)CC3)CC[C@]3(C)[C@H](CC[C@@H]4[C@@]5(C)CC=C(c6ccc(C(=O)O)cc6)C(C)(C)[C@@H]5CC[C@]43C)[C@@H]12` [Example B46, 4-((1R,3aS,5aR,5bR,7aR,11aS,11bR,13aR,13bR)-3a-((2-(4-((4-chlorophenyl)sulfonyl)piperazin-1-yl)ethyl)amino)-5a,5b,8,8,11a-pentamethyl-1-(prop-1-en-2-yl)-2,3,3a,4,5,5a,5b,6,7,7a,8,11,11a,11b,12,13,13a,13b-octadecahydro-1H-cyclopenta[a]chrysen-9-yl)benzoic acid]: under “class symbols (key in Table 1)”, the EC50 is less than 100 nM.

With `C=C(C)[C@@H]1CC[C@]2(NC(=O)NC3(CN(CC)CC)CC3)CC[C@]3(C)[C@H](CC[C@@H]4[C@@]5(C)CC=C(c6ccc(C(=O)O)cc6)C(C)(C)[C@@H]5CC[C@]43C)[C@@H]12` [Example 7, 4-((1R,3aS,5aR,5bR,7aR,11aS,11bR,13aR,13bR)-3a-(3-(1-((diethylamino)methyl)cyclopropyl)ureido)-5a,5b,8,8,11a-pentamethyl-1-(prop-1-en-2-yl)-2,3,3a,4,5,5a,5b,6,7,7a,8,11,11a,11b,12,13,13a,13b-octadecahydro-1H-cyclopenta[a]chrysen-9-yl)benzoic acid], the EC50 (class symbols (key in Table 1)) was less than 100 nM.

The values above are taken from patent publication US20140343000A1 (priority 2011, published 2014).
